Source: patent publication US20250099557A1, “ANTIBIOTIC PHARMACEUTICAL COMPOSITION CAPABLE OF SUBCUTANEOUS ADMINISTRATION” (SHANGHAI BAO PHARMACEUTICALS CO., LTD., priority 2021, published 2025)

Key:
[1] = Compatibility study of HAase and antibiotic in solution: appearance of the solution; assay type: physicochemical; details: 8 solutions of antibiotic (two concentrations) with HAase 150-6000 units/ml in physiological saline
Procedure: (§1) The compatibility of HAase and an antibiotic was studied by preparing a solution comprising the two substances. A dry Meropenem power for injection was dissolved in physiological saline to give a concentration of 5 mg/ml and 50 mg/ml, and then HAase was added to give a final concentration of 150, 500, 2000, and 6000 units/ml respectively. After preparation, the solution was left to stand at room temperature for 15 min. The appearance of the solution was observed, and the concentration of HAase was determined.
as §1, with “dry Ceftriaxone sodium” for “dry Meropenem”, “of 50” for “of 5”, “and 250” for “and 50”
as §1, with “dry Azithromycin” for “dry Meropenem”, “of 10” for “of 5”, “and 100” for “and 50”
as §1, with “dry Cefradine powder” for “dry Meropenem power”, “of 50” for “of 5”, “and 250” for “and 50”
as §1, with “dry Teicoplanin powder” for “dry Meropenem power”, “of 10” for “of 5”, “and 70” for “and 50”
as §1, with “dry Ceftazidime powder” for “dry Meropenem power”, “of 20” for “of 5”, “and 200” for “and 50”
as §1, with “dry Ertapenem” for “dry Meropenem”, “of 30” for “of 5”, “and 300” for “and 50”
The compatibility of HAase and an antibiotic was studied by preparing a solution comprising the two substances. A dry Polymyxin B powder for injection was dissolved in physiological saline to give a concentration of 50,000 units/ml and 250,000 units/ml, and then HAase was added to give a final concentration of 150, 500, 2000, and 6000 units/ml respectively.

HAase = molecular target: T1, HAase (Homo sapiens, UniProt P38567); assay: Compatibility study of HAase and antibiotic in solution: HAase activity; assay type: biochemical; details: 15 min room temperature; for Final concentration of HAase (units/ml) 150: HAase added to 150 units/ml; for Final concentration of HAase (units/ml) 500: HAase added to 500 units/ml; for Final concentration of HAase (units/ml) 2000: HAase added to 2000 units/ml; for Final concentration of HAase (units/ml) 6000: HAase added to 6000 units/ml; for interference with the activity of HAase: antibiotic and HAase in physiological saline
T1 construct: made in house
T1 sequence (P38567 36-482): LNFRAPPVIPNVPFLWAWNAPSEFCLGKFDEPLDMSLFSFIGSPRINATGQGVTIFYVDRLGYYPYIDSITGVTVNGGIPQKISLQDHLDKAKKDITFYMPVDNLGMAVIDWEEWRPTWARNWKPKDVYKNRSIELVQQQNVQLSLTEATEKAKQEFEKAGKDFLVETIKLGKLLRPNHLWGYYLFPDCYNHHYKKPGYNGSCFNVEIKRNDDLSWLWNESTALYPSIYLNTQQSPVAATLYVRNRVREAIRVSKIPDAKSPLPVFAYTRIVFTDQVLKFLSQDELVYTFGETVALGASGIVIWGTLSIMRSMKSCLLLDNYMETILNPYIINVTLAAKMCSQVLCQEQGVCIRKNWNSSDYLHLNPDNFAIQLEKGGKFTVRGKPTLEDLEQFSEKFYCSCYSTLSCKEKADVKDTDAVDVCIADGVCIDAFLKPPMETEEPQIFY
Procedure: “HAase activity refers to the ability of HAase to catalytically cleave hyaluronic acid. The Chinese Pharmacopoeia provides a method for determining the HAase activity, indirectly by measuring the amount of remaining higher-molecular-weight hyaluronic acid substrate after the enzyme is allowed to catalytically cleave hyaluronic acid at 37° C. for 30 min. A standard reference solution can be used in the assay to determine the relative activity (in units) of any HAase. In-vitro assays for the determination of HAase are known in the art. Exemplary assays include micro-turbidimetric assay described below, which indirectly measures the cleavage of hyaluronic acid by HAase by detecting an insoluble precipitate formed when uncleaved hyaluronic acid binds to serum albumin. The reference standard can be used, for example, to generate a standard curve, so as to determine the activity of the tested HAase in units.
as §1
as §1, with “dry Ceftriaxone sodium” for “dry Meropenem”, “of 50” for “of 5”, “and 250” for “and 50”
as §1, with “dry Azithromycin” for “dry Meropenem”, “of 10” for “of 5”, “and 100” for “and 50”
as §1, with “dry Cefradine powder” for “dry Meropenem power”, “of 50” for “of 5”, “and 250” for “and 50”
as §1, with “dry Teicoplanin powder” for “dry Meropenem power”, “of 10” for “of 5”, “and 70” for “and 50”
as §1, with “dry Ceftazidime powder” for “dry Meropenem power”, “of 20” for “of 5”, “and 200” for “and 50”, “min.” for “min. The appearance of the solution was observed, and the concentration of HAase was determined.”

[2] = antibiotic 50 mg/ml in physiological saline
[3] = antibiotic 250 mg/ml in physiological saline
[4] = antibiotic 20 mg/ml in physiological saline
[5] = antibiotic 200 mg/ml in physiological saline
[6] = antibiotic 30 mg/ml in physiological saline
[7] = antibiotic 300 mg/ml in physiological saline
[8] = antibiotic 10 mg/ml in physiological saline
[9] = antibiotic 70 mg/ml in physiological saline

Compound | appearance of the solution [1] | Final concentration of HAase (units/ml) 150 (HAase; [2]) [units/ml] | Final concentration of HAase (units/ml) 500 (HAase; [2]) [units/ml] | Final concentration of HAase (units/ml) 2000 (HAase; [2]) [units/ml] | Final concentration of HAase (units/ml) 6000 (HAase; [2]) [units/ml] | Final concentration of HAase (units/ml) 150 (HAase; [3]) [units/ml] | Final concentration of HAase (units/ml) 500 (HAase; [3]) [units/ml] | Final concentration of HAase (units/ml) 2000 (HAase; [3]) [units/ml] | Final concentration of HAase (units/ml) 6000 (HAase; [3]) [units/ml] | interference with the activity of HAase (HAase) | also measured
CC1=C(C(=O)O)N2C(=O)[C@@H](NC(=O)[C@H](N)C3=CCC=CC3)[C@H]2SC1 [Cefradine] | clear and transparent | 162 | 492 | 2009 | 6126 | 161 | 482 | 2080 | 5797 | does not interfere with the activity of HAase | –
CC(C)(O/N=C(\C(=O)N[C@@H]1C(=O)N2C(C(=O)[O-])=C(C[n+]3ccccc3)CS[C@H]12)c1csc(N)n1)C(=O)O [Ceftazidime] | clear and transparent | – | – | – | – | – | – | – | – | does not interfere with the activity of HAase | Final concentration of HAase (units/ml) 150 (HAase; [4]): 145 units/ml; Final concentration of HAase (units/ml) 500 (HAase; [4]): 501 units/ml; Final concentration of HAase (units/ml) 2000 (HAase; [4]): 2026 units/ml; Final concentration of HAase (units/ml) 6000 (HAase; [4]): 6027 units/ml; Final concentration of HAase (units/ml) 150 (HAase; [5]): 148 units/ml; Final concentration of HAase (units/ml) 500 (HAase; [5]): 488 units/ml; Final concentration of HAase (units/ml) 2000 (HAase; [5]): 2001 units/ml; Final concentration of HAase (units/ml) 6000 (HAase; [5]): 5981 units/ml

The next lines start with results.

appearance of the solution [1] | Final concentration of HAase (units/ml) 150 (HAase; [2]) [units/ml] | Final concentration of HAase (units/ml) 500 (HAase; [2]) [units/ml] | Final concentration of HAase (units/ml) 2000 (HAase; [2]) [units/ml] | Final concentration of HAase (units/ml) 6000 (HAase; [2]) [units/ml] | Final concentration of HAase (units/ml) 150 (HAase; [3]) [units/ml] | Final concentration of HAase (units/ml) 500 (HAase; [3]) [units/ml] | Final concentration of HAase (units/ml) 2000 (HAase; [3]) [units/ml] | Final concentration of HAase (units/ml) 6000 (HAase; [3]) [units/ml] | Compound | interference with the activity of HAase (HAase) | also measured
clear and transparent | 162 | 510 | 1986 | 6067 | 162 | 507 | 1962 | 6232 | CO/N=C(\C(=O)N[C@@H]1C(=O)N2C(C(=O)O)=C(CSc3nc(=O)c(=O)[nH]n3C)CS[C@H]12)c1csc(N)n1 [Ceftriaxone] | does not interfere with the activity of HAase | –
clear and transparent | – | – | – | – | – | – | – | – | C[C@@H](O)[C@H]1C(=O)N2C(C(=O)O)=C(S[C@@H]3CN[C@H](C(=O)Nc4cccc(C(=O)O)c4)C3)[C@H](C)[C@H]12 [Ertapenem] | not interfere with the activity of HAase | Final concentration of HAase (units/ml) 150 (HAase; [6]): 152 units/ml; Final concentration of HAase (units/ml) 500 (HAase; [6]): 501 units/ml; Final concentration of HAase (units/ml) 6000 (HAase; [6]): 6121 units/ml; Final concentration of HAase (units/ml) 500 (HAase; [7]): 511 units/ml; Final concentration of HAase (units/ml) 2000 (HAase; [7]): 1974 units/ml; Final concentration of HAase (units/ml) 6000 (HAase; [7]): 5990 units/ml
clear and transparent | – | – | – | – | – | – | – | – | Teicoplanin | does not interfere with the activity of HAase | Final concentration of HAase (units/ml) 150 (HAase; [8]): 160 units/ml; Final concentration of HAase (units/ml) 500 (HAase; [8]): 488 units/ml; Final concentration of HAase (units/ml) 2000 (HAase; [8]): 1972 units/ml; Final concentration of HAase (units/ml) 6000 (HAase; [8]): 6033 units/ml; Final concentration of HAase (units/ml) 150 (HAase; [9]): 152 units/ml; Final concentration of HAase (units/ml) 500 (HAase; [9]): 498 units/ml; Final concentration of HAase (units/ml) 2000 (HAase; [9]): 1961 units/ml; Final concentration of HAase (units/ml) 6000 (HAase; [9]): 5979 units/ml
